# From ChEMBL document CHEMBL3046204, “Protective effect of Centaurea pallescens Del. against CCl4-induced injury on a human hepatoma cell line (Huh7)” (2013)
# Active and inactive are the calls of the source. No cut-off for these calls is given here.
# Key:
# Huh-7 [1] = assay: Hepatoprotective activity against CCL4-induced toxicity in human HuH7 cells assessed as increase in GSH level at 10 to 1000 ug/ml incubated for 1 hr prior to CCL4-challenge measured after 2 hrs relative to control; format: functional, cell-based
# Huh-7 [2] = assay: Hepatoprotective activity against CCL4-induced toxicity in human HuH7 cells assessed as increase in superoxide dismutase activity at 10 to 1000 ug/ml incubated for 1 hr prior to CCL4-challenge measured after 2 hrs relative to control; format: functional, cell-based
# Huh-7 [3] = assay: Hepatoprotective activity against CCL4-induced toxicity in human HuH7 cells assessed as decrease in alanine transaminase level at 10 to 1000 ug/ml incubated for 1 hr prior to CCL4-challenge measured after 2 hrs relative to control; format: functional, cell-based
# Huh-7 [4] = assay: Hepatoprotective activity against CCL4-induced toxicity in human HuH7 cells assessed as decrease in aspartate aminotransferase level at 10 to 1000 ug/ml incubated for 1 hr prior to CCL4-challenge measured after 2 hrs relative to control; format: functional, cell-based
# Huh-7 [5] = assay: Hepatoprotective activity against CCL4-induced toxicity in human HuH7 cells assessed as superoxide dismutase activity at 100 ug/ml incubated for 1 hr prior to CCL4-challenge measured after 2 hrs (reference value: 168.4 +/- 24.9 U/ml); format: functional
# Huh-7 [6] = assay: Hepatoprotective activity against CCL4-induced toxicity in human HuH7 cells assessed as alanine transaminase level at 100 ug/ml incubated for 1 hr prior to CCL4-challenge measured after 2 hrs (reference value: 21.5 +/- 3.7 U/ml); format: functional
# Huh-7 [7] = assay: Hepatoprotective activity against CCL4-induced toxicity in human HuH7 cells assessed as aspartate aminotransferase level at 10 ug/ml incubated for 1 hr prior to CCL4-challenge measured after 2 hrs (reference value: 38.9 +/- 7.9 U/ml); format: functional
Structure (SMILES),Activity (Huh-7 [1]),Activity (Huh-7 [2]),Activity (Huh-7 [3]),Activity (Huh-7 [4]),Activity (Huh-7 [5]) [U/ml],Activity (Huh-7 [6]) [U/ml],Activity (Huh-7 [7]) [U/ml]
O=c1c(O[C@@H]2O[C@H](CO)[C@@H](O)[C@H](O)[C@H]2O)c(-c2ccc(O)c(O)c2)oc2cc(O)cc(O)c12,Active,Active,Active,Active,–,–,–
COc1ccc(-c2oc3cc(O[C@@H]4O[C@@H](C)[C@H](OC(=O)/C=C/c5ccc(O)cc5)[C@@H](O)[C@H]4O)cc(O)c3c(=O)c2O[C@@H]2O[C@H](CO)[C@@H](O)[C@H](O[C@@H]3O[C@@H](C)[C@H](O)[C@@H](O)[C@H]3O)[C@H]2OC(=O)/C=C/c2ccc(O)cc2)cc1,Active,Active,Active,Active,264.6,18.6,–
O=c1c(OC2O[C@H](CO)[C@@H](O)[C@H](O)[C@H]2O)c(-c2cc(O)c(O)c(O)c2)oc2cc(O)cc(O)c12 (stereo not given in full) [MYRICETIN 3-O-GLUCOSIDE],Active,Active,Active,Active,–,–,5.8
